The results in this text go back to patent US8846733B2, “Oxazolyl-methylether derivatives as ALX receptor agonists” (Actelion Pharmaceuticals Ltd., priority 2010, dated 2014).

One assay addresses T1, recombinant human ALX receptor (Homo sapiens, UniProt P25090).
T1 construct: expressed in transfected cells; host or cells: HEK293 (HEK293-hALXR-Gα16)
T1 sequence (P25090 1-351): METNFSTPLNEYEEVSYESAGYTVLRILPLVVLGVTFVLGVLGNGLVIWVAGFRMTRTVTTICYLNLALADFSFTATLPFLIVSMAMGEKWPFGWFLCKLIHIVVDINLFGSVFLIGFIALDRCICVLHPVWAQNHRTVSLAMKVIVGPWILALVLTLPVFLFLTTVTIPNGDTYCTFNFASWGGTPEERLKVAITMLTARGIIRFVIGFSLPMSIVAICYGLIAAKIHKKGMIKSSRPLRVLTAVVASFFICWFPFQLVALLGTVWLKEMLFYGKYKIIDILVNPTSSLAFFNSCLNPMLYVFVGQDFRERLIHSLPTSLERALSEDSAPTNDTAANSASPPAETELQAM
Nature of the assay: Intracellular calcium measurements (FLIPR), ALX receptor agonistic activity. Type of assay: cell-based. Conditions: HEK293-hALXR-Gα16 cells; Table 1, exemplified compounds. As for the experimental part: The ALX receptor agonistic activity of the compounds of formula (I) is determined in accordance with the following experimental method.
Intracellular Calcium Measurements:
Cells expressing recombinant human ALX receptor and the G-protein Gα16 (HEK293-hALXR-Gα16) were grown to 80% confluency in Growing Medium (GM). Cells were detached from culture dishes with a cell dissociation buffer (Invitrogen, 13151-014), and collected by centrifugation at 1,000 rpm at rt for 5 min in Assay Buffer (AB) (equal parts of Hank's BSS (Gibco, 14065-049) and DMEM without Phenol Red (Gibco, 11880-028)). After 60 min incubation at 37° C. under 5% CO2 in AB supplemented with 1 μM Fluo-4 (AM) (Invitrogen, F14202) and 20 mM HEPES (Gibco, 15630-056), the cells were washed and resuspended in AB. They were then seeded onto 384-well FLIPR assay plates (Greiner, 781091) at 50,000 cells in 70 μl per well and sedimented by centrifugation at 1,000 rpm for 1 min. Stock solutions of test compounds were made up at a concentration of 10 mM in DMSO, and serially diluted in AB to concentrations required for activation dose response curves. WKYMVm (Phoenix Peptides) was used as a reference agonist. A FLIPR Tetra instrument (Molecular Devices) was operated according to the manufacturer's standard instructions, adding 4 μl of test compound dissolved at 10 mM in DMSO and diluted prior to the experiment in assay buffer to obtain the desired final concentration. Changes in fluorescence were monitored before and after the addition of test compounds at lex=488 nm and lem=540 nm. Emission peak values above base level after compounds addition were exported after base line subtraction. Values were normalized to high-level control (WKYMVm compound, 10 nM final concentration) after subtraction of the base line value (AB addition).
(Calcium assays in cells follow changes in intracellular calcium, usually with a dye or a luminescent sensor.)
Broadly, the EC50 is the concentration that produces a half-maximal response. As to `COCc1coc(Cn2ncc(NC(=O)c3nc(C)oc3-c3cccc(C(F)(F)F)c3)n2)n1` [Example 5, N-(2-((4-(Methoxymethyl)oxazol-2-yl)methyl)-2H-1,2,3-triazol-4-yl)-2-methyl-5-(3-(trifluoromethyl)phenyl)oxazole-4-carboxamide], the EC50 turned out to be 5.6 nM.

As to `COCc1coc(Cn2ncc(NC(=O)c3ncoc3-c3cccc(Cl)c3)n2)n1` [Example 6, 5-(3-Chlorophenyl)-N-(2-((4-(methoxymethyl)oxazol-2-yl)methyl)-2H-1,2,3-triazol-4-yl)oxazole-4-carboxamide], the EC50 is 4 nM.

With `COCc1coc(Cn2ncc(NC(=O)c3ncoc3-c3cccc(OC)c3)n2)n1` [Example 7, N-(2-((4-(Methoxymethyl)oxazol-2-yl)methyl)-2H-1,2,3-triazol-4-yl)-5-(3-methoxyphenyl)oxazole-4-carboxamide], the concentration giving a half-maximal response (EC50) was 17.5 nM.

Turning to `COCc1coc(Cn2ncc(NC(=O)c3ncoc3-c3cccc(C)c3)n2)n1` [Example 10, N-(2-((4-(Methoxymethyl)oxazol-2-yl)methyl)-2H-1,2,3-triazol-4-yl)-5-(m-tolyl)oxazole-4-carboxamide], the EC50 came out at 4.6 nM.

With `COCc1coc(Cn2ncc(NC(=O)c3nc(C4CC4)oc3-c3cccc(C)c3)n2)n1` [Example 12, 2-Cyclopropyl-N-(2-((4-(methoxymethyl)oxazol-2-yl)methyl)-2H-1,2,3-triazol-4-yl)-5-(m-tolyl)oxazole-4-carboxamide], the EC50 is 11.6 nM.

As for `COC(C)(C)c1coc(Cn2ncc(NC(=O)c3nc(C)oc3-c3cccc(C)c3)n2)n1` [Example 1, N-(2-((4-(2-Methoxypropan-2-yl)oxazol-2-yl)methyl)-2H-1,2,3-triazol-4-yl)-2-methyl-5-(m-tolyl)oxazole-4-carboxamide], the EC50 amounted to 6.6 nM.

As for `CCOCc1coc(Cn2ncc(NC(=O)c3ncoc3-c3ccccc3)n2)n1` [Example 15, N-(2-((4-(ethoxymethyl)oxazol-2-yl)methyl)-2H-1,2,3-triazol-4-yl)-5-phenyloxazole-4-carboxamide], the EC50 turned out to be 8.6 nM.

For the compound `CCOCc1coc(Cn2ncc(NC(=O)c3nc(C)oc3-c3cccc(C)c3)n2)n1` [Example 14, N-(2-((4-(ethoxymethyl)oxazol-2-yl)methyl)-2H-1,2,3-triazol-4-yl)-2-methyl-5-(m-tolyl)oxazole-4-carboxamide], the concentration giving a half-maximal response (EC50) was 6.7 nM.

As for `COCc1coc(Cn2ncc(NC(=O)c3nc(C)oc3-c3ccccc3)n2)n1` [Example 3, N-(2-((4-(Methoxymethyl)oxazol-2-yl)methyl)-2H-1,2,3-triazol-4-yl)-2-methyl-5-phenyloxazole-4-carboxamide], the EC50 came out at 4.3 nM.

For the compound `COCc1coc(Cn2ncc(NC(=O)c3nc(C)oc3-c3cccc(OC)c3)n2)n1` [Example 8, N-(2-((4-(Methoxymethyl)oxazol-2-yl)methyl)-2H-1,2,3-triazol-4-yl)-5-(3-methoxyphenyl)-2-methyloxazole-4-carboxamide], the EC50 stood at 8.8 nM.

For `COCc1coc(Cn2ncc(NC(=O)c3ncoc3-c3ccccc3)n2)n1` [Example 13, N-(2-((4-(Methoxymethyl)oxazol-2-yl)methyl)-2H-1,2,3-triazol-4-yl)-5-phenyloxazole-4-carboxamide], the EC50 was found to be 5 nM.

On to `COCc1coc(Cn2ncc(NC(=O)c3nc(C)oc3-c3cccc(Cl)c3)n2)n1` [Example 4, 5-(3-Chlorophenyl)-N-(2-((4-(methoxymethyl)oxazol-2-yl)methyl)-2H-1,2,3-triazol-4-yl)-2-methyloxazole-4-carboxamide], for which the EC50 was determined as 2.1 nM.

As for `COCc1coc(Cn2ncc(NC(=O)c3nc(C)oc3-c3cccc(OC(F)(F)F)c3)n2)n1` [Example 11, N-(2-((4-(Methoxymethyl)oxazol-2-yl)methyl)-2H-1,2,3-triazol-4-yl)-2-methyl-5-(3-(trifluoromethoxy)phenyl)oxazole-4-carboxamide], the 50% effective concentration (EC50) was 7.4 nM.

As to `COCc1coc(Cn2ncc(NC(=O)c3nc(C)oc3-c3cccc(F)c3)n2)n1` [Example 9, 5-(3-Fluorophenyl)-N-(2-((4-(methoxymethyl)oxazol-2-yl)methyl)-2H-1,2,3-triazol-4-yl)-2-methyloxazole-4-carboxamide], the EC50 amounted to 3.7 nM.

The same assay, now with this note: HEK293-hALXR-Gα16 cells; Table 2, compound failing within formula I of WO 2009/077990.
`CC(=O)c1nc(Cn2ncc(NC(=O)c3ncoc3-c3ccccc3)n2)cs1` [example 45]: the EC50 came to 93 nM.

For the compound `CC(=O)c1nc(Cn2ncc(NC(=O)c3nc(C)oc3-c3cccc(C)c3)n2)co1`, the EC50 is 0.9 nM.

Consider `CC(=O)c1csc(Cn2ncc(NC(=O)c3ncoc3-c3ccccc3)n2)n1` [example 39], for which the EC50 was 8.1 nM.

Turning to `CC(=O)c1ncc(Cn2ncc(NC(=O)c3ncoc3-c3ccccc3)n2)s1` [example 67], the concentration giving a half-maximal response (EC50) amounted to 73 nM.

In the case of `CC(=O)c1nc(Cn2ncc(NC(=O)c3ncoc3-c3ccccc3)n2)co1`, the EC50 amounted to 1.5 nM.

For `CC(=O)c1cnc(Cn2ncc(NC(=O)c3ncoc3-c3ccccc3)n2)s1` [example 73], the EC50 is 88 nM.

The same assay, now with this note: HEK293-hALXR-Gα16 cells; Table 2, reference compounds.
Turning to `COCc1cnc(Cn2ncc(NC(=O)c3ncoc3-c3ccccc3)n2)s1` [reference compound 8, N-(2-((5-(methoxymethyl)thiazol-2-yl)methyl)-2H-1,2,3-triazol-4-yl)-5-phenyloxazole-4-carboxamide], the EC50 came out at 5950 nM.

On to `COCc1ncc(Cn2ncc(NC(=O)c3nc(C)oc3-c3cccc(C)c3)n2)s1` [reference compound 1, N-(2-((2-(Methoxymethyl)thiazol-5-yl)methyl)-2H-1,2,3-triazol-4-yl)-2-methyl-5-(m-tolyl)oxazole-4-carboxamide], for which the EC50 was determined as 4810 nM.

With `COCc1nc(Cn2ncc(NC(=O)c3ncoc3-c3ccccc3)n2)cs1` [reference compound 6, N-(2-((2-(methoxymethyl)thiazol-4-yl)methyl)-2H-1,2,3-triazol-4-yl)-5-phenyloxazole-4-carboxamide], the EC50 turned out to be 146 nM.

As to `COCc1cnc(Cn2ncc(NC(=O)c3nc(C)oc3-c3cccc(C)c3)n2)s1` [reference compound 2, N-(2-((5-(Methoxymethyl)thiazol-2-yl)methyl)-2H-1,2,3-triazol-4-yl)-2-methyl-5-(m-tolyl)oxazole-4-carboxamide], the EC50 stood at 2540 nM.

On to `COCc1ncc(Cn2ncc(NC(=O)c3ncoc3-c3ccccc3)n2)s1` [reference compound 7, N-(2-((2-(methoxymethyl)thiazol-5-yl)methyl)-2H-1,2,3-triazol-4-yl)-5-phenyloxazole-4-carboxamide], for which the EC50 is 8130 nM.

`COC(C)(C)c1nc(Cn2ncc(NC(=O)c3ncoc3-c3ccccc3)n2)co1` [reference compound 9, N-(2-((2-(2-methoxypropan-2-yl)oxazol-4-yl)methyl)-2H-1,2,3-triazol-4-yl)-5-phenyloxazole-4-carboxamide]: the 50% effective concentration (EC50) was 685 nM.

For the compound `COCc1csc(Cn2ncc(NC(=O)c3ncoc3-c3ccccc3)n2)n1` [reference compound 5, N-(2-((4-(methoxymethyl)thiazol-2-yl)methyl)-2H-1,2,3-triazol-4-yl)-5-phenyloxazole-4-carboxamide], the EC50 was found to be 48 nM.

As for `COCc1ccc(Cn2ncc(NC(=O)c3ncoc3-c3ccccc3)n2)s1` [reference compound 4, N-(2-((5-(methoxymethyl)thiophen-2-yl)methyl)-2H-1,2,3-triazol-4-yl)-5-phenyloxazole-4-carboxamide], the concentration giving a half-maximal response (EC50) came out at 2300 nM.

In the case of `COCc1ccc(Cn2ncc(NC(=O)c3ncoc3-c3ccccc3)n2)o1` [reference compound 3, N-(2-((5-(methoxymethyl)furan-2-yl)methyl)-2H-1,2,3-triazol-4-yl)-5-phenyloxazole-4-carboxamide], the EC50 was 498 nM.

Turning to `COCc1nc(Cn2ncc(NC(=O)c3nc(C)oc3-c3cccc(C)c3)n2)co1` [reference compound 10, N-(2-((2-(Methoxymethyl)oxazol-4-yl)methyl)-2H-1,2,3-triazol-4-yl)-2-methyl-5-(m-tolyl)oxazole-4-carboxamide], the EC50 was determined as 8.1 nM.
